Measured values: ChEMBL document CHEMBL4118101 (Bioorg Med Chem, 2018)
≈ marks a conversion by molar mass, not a printed value. Calls of active or inactive are those of the source. The calls are words filed in the database; no cut-off is given here.

Key:
Candida albicans [1] = assay: Induction of membrane permeabilization in Candida albicans ATCC 10231 assessed as membrane disruption at 4 times MIC after 1 hr by propidium iodide staining based fluorescence microscopy; format: functional, organism-based
Candida albicans [2] = assay: Antifungal activity against fluconazole/ITC-susceptible Candida albicans ATCC MYA-2876 measured after 48 hrs by CLSI M27-A3 protocol based method; format: functional; settings: Candida albicans, ATCC MYA-2876, 48 h
A549 = assay: Cytotoxicity against human A549 cells up to 7.8 ug/ml after 24 hrs by resazurin based assay; format: cell-based; settings: a549, 24 h
Candida albicans [3] = assay: Ratio of MIC for Candida albicans ATCC 10231 in presence of 10% FBS to MIC for Candida albicans ATCC 10231 in absence of 10% FBS; format: functional
Pichia kudriavzevii = assay: Antifungal activity against Candida krusei ATCC 6258 measured after 48 hrs by CLSI M27-A3 protocol based method; format: functional; settings: Pichia kudriavzevii, ATCC 6258, 48 h
BEAS-2B = assay: Cytotoxicity against human BEAS2B cells up to 7.8 ug/ml after 24 hrs by resazurin based assay; format: cell-based
[4] = Hemolytic activity in mouse RBC at 31.3 ug/ml after 1 hr relative to control; format: ADME, cell-based, Erythrocyte; settings: mouse red blood cells (erythrocytes), at 31.3 µg/mL, read-out: Activity
Candida parapsilosis [5] = assay: Antifungal activity against Candida parapsilosis ATCC 22019 measured after 48 hrs in presence of 10% FBS by CLSI M27-A3 protocol based method; format: functional; settings: Lodderomyces parapsilosis, ATCC 22019, 48 h
Nakaseomyces glabratus [6] = assay: Antifungal activity against Candida glabrata isolate CG1 measured after 48 hrs by CLSI M27-A3 protocol based method; format: functional; settings: Nakaseomyces glabratus, 48 h; read-out: MIC
[7] = Cytotoxicity against HEK293 cells assessed as cell survival at 3.9 ug/ml after 24 hrs by resazurin based assay relative to control; settings: human, read-out: Survival
Candida albicans [8] = assay: Antifungal activity against Candida albicans ATCC 10231 measured after 48 hrs by CLSI M27-A3 protocol based method; format: functional; settings: ATCC 10231, 48 h
[9] = Hemolytic activity in mouse RBC at 62.5 ug/ml after 1 hr relative to control; format: ADME, cell-based, Erythrocyte; settings: mouse red blood cells (erythrocytes), read-out: Activity
Candida albicans [10] = assay: Antifungal activity against Candida albicans ATCC 10231 measured after 48 hrs in presence of 10% FBS by CLSI M27-A3 protocol based method; format: functional; settings: Candida albicans, ATCC 10231, 48 h
Aspergillus nidulans [11] = assay: Antifungal activity against Aspergillus nidulans ATCC 38163 measured after 48 hrs by CLSI M38-A2 protocol based method; format: functional; settings: ATCC 38163, 48 h
Aspergillus nidulans [12] = assay: Antifungal activity against Aspergillus nidulans ATCC 38163 measured after 48 hrs in presence of 10% FBS by CLSI M38-A2 protocol based method; format: functional; settings: ATCC 38163, 48 h
Nakaseomyces glabratus [13] = assay: Antifungal activity against Candida glabrata isolate CG2 measured after 48 hrs by CLSI M27-A3 protocol based method; format: functional; settings: Nakaseomyces glabratus, isolate CG2, 48 h; read-out: MIC
[14] = Hemolytic activity in mouse RBC at 7.8 ug/ml after 1 hr relative to control; format: ADME, cell-based, Erythrocyte; settings: mouse red blood cells (erythrocytes), read-out: Activity
Aspergillus terreus = assay: Antifungal activity against Aspergillus terreus ATCC MYA-3633 measured after 48 hrs by CLSI M38-A2 protocol based method; format: functional; settings: ATCC MYA-3633, 48 h
Candida parapsilosis [15] = assay: Antifungal activity against Candida parapsilosis isolate CP1 measured after 48 hrs by CLSI M27-A3 protocol based method; format: functional; settings: Lodderomyces parapsilosis, isolate CP1, 48 h
[16] = Hemolytic activity in mouse RBC at 3.9 ug/ml after 1 hr relative to control; format: ADME, cell-based, Erythrocyte; settings: mouse red blood cells (erythrocytes), read-out: Activity
Nakaseomyces glabratus [17] = assay: Antifungal activity against Candida glabrata isolate CG3 measured after 48 hrs by CLSI M27-A3 protocol based method; format: functional; settings: Nakaseomyces glabratus, 48 h; read-out: MIC
[18] = Hemolytic activity in mouse RBC at 1.95 ug/ml after 1 hr relative to control; format: ADME, cell-based, Erythrocyte; settings: mouse red blood cells (erythrocytes), at 1.95 µg/mL, read-out: Activity
Candida albicans [19] = assay: Inhibition of Candida albicans ATCC 10231 ERG11 assessed as ergosterol composition of total sterols at 0.48 ug/ml incubated for 10 mins followed by saponification for 2 hrs by GC-MS method (reference value: 100%); parameters: scale not given: the % may be the effect or the level left
[20] = Hemolytic activity in mouse RBC at 0.48 ug/ml after 1 hr relative to control; format: ADME, cell-based, Erythrocyte; settings: mouse red blood cells (erythrocytes), read-out: Activity
Candida parapsilosis [21] = assay: Antifungal activity against Candida parapsilosis ATCC 22019 measured after 48 hrs by CLSI M27-A3 protocol based method; format: functional; settings: Lodderomyces parapsilosis, ATCC 22019, 48 h
Candida albicans [22] = assay: Inhibition of Candida albicans ATCC 10231 ERG11 assessed as eburicol composition of total sterols at 0.48 ug/ml incubated for 10 mins followed by saponification for 2 hrs by GC-MS method relative to control; parameters: scale not given: the % may be the effect or the level left
Aspergillus flavus = assay: Antifungal activity against Aspergillus flavus ATCC MYA-3631 measured after 48 hrs by CLSI M38-A2 protocol based method; format: functional; settings: ATCC MYA-3631, 48 h
Candida albicans [23] = assay: Inhibition of Candida albicans ATCC 10231 ERG11 assessed as 14alphamethyl ergosta-8,24(28)-diene-3beta,6alpha-diol composition of total sterols at 0.48 ug/ml incubated for 10 mins followed by saponification for 2 hrs by GC-MS method relative to control; parameters: scale not given: the % may be the effect or the level left
Candida albicans [24] = assay: Inhibition of Candida albicans ATCC 10231 ERG11 assessed as lanosterol composition of total sterols at 0.48 ug/ml incubated for 10 mins followed by saponification for 2 hrs by GC-MS method relative to control; parameters: scale not given: the % may be the effect or the level left
Cryptococcus neoformans [25] = assay: Antifungal activity against Cryptococcus neoformans isolate CN1 measured after 48 hrs by CLSI M27-A3 protocol based method; format: functional; settings: isolate CN1, 48 h
Nakaseomyces glabratus [26] = assay: Antifungal activity against Candida glabrata ATCC 2001 measured after 48 hrs by CLSI M27-A3 protocol based method; format: functional, CBS 138; settings: Nakaseomyces glabratus, CBS 138, 48 h; read-out: MIC
Aspergillus nidulans [27] = assay: Ratio of MIC for Aspergillus nidulans ATCC 38163 in presence of 10% FBS to MIC for Aspergillus nidulans ATCC 38163 in absence of 10% FBS; format: functional
[28] = Hemolytic activity in mouse RBC at […] ug/ml after 1 hr relative to control; format: ADME, cell-based, Erythrocyte; settings: mouse red blood cells (erythrocytes), read-out: Activity
Candida albicans [29] = assay: Antifungal activity against fluconazole/ITC-resistant Candida albicans ATCC MYA-1237 measured after 48 hrs by CLSI M27-A3 protocol based method; format: functional; settings: Candida albicans, ATCC MYA-1237, 48 h; read-out: MIC
Candida parapsilosis [30] = assay: Antifungal activity against Candida parapsilosis isolate CP3 measured after 48 hrs by CLSI M27-A3 protocol based method; format: functional; settings: Lodderomyces parapsilosis, isolate CP3, 48 h
Candida parapsilosis [31] = assay: Antifungal activity against Candida parapsilosis isolate CP2 measured after 48 hrs by CLSI M27-A3 protocol based method; format: functional; settings: Lodderomyces parapsilosis, isolate CP2, 48 h
Candida albicans [32] = assay: Antifungal activity against fluconazole/ITC-resistant Candida albicans ATCC 90819 measured after 48 hrs by CLSI M27-A3 protocol based method; format: functional; settings: Candida albicans, ATCC 90819, 48 h; read-out: MIC
Cryptococcus neoformans [33] = assay: Antifungal activity against Cryptococcus neoformans isolate CN3 measured after 48 hrs by CLSI M27-A3 protocol based method; format: functional; settings: Cryptococcus neoformans, isolate CN3, 48 h; read-out: MIC
Cryptococcus neoformans [34] = assay: Antifungal activity against Cryptococcus neoformans isolate CN2 measured after 48 hrs by CLSI M27-A3 protocol based method; format: functional; settings: Cryptococcus neoformans, isolate CN2, 48 h; read-out: MIC

For `CCCCCCCCCCCCNCC(O)(Cn1cncn1)c1ccc(F)cc1F` (stereo not given), the Activity (Candida albicans [1]) was “Active”, the MIC (Candida albicans [2]) was 9.2 µM (≈ 3.89 µg/mL) and the Activity (A549) was “Non-Toxic”. For the same compound, the Ratio (Candida albicans [3]) was 2, the MIC (Pichia kudriavzevii) was 2.3 µM (≈ 0.972 µg/mL) and the Activity (BEAS-2B) was “Non-Toxic”. It also gave a hemolysis at 1 h, 31.3 ug/ml [4] of 100%, an MIC (Candida parapsilosis [5]) of 0.24 µg/mL and an MIC (Nakaseomyces glabratus [6]) of 4.6 µM (≈ 1.94 µg/mL). The viability at 24 h, 3.9 ug/ml [7] was over 50%, the MIC (Candida albicans [8]) was 2.3 µM (≈ 0.972 µg/mL) and the hemolysis at 1 h, 62.5 ug/ml [9] was 98%. For the same compound, the MIC (Candida albicans [10]) was 1.95 µg/mL, the MIC (Aspergillus nidulans [11]) was 4.6 µM (≈ 1.94 µg/mL) and the MIC (Aspergillus nidulans [12]) was 7.8 µg/mL. For the same compound, the MIC (Nakaseomyces glabratus [13]) was 2.3 µM (≈ 0.972 µg/mL), the hemolysis at 1 h, 7.8 ug/ml [14] was 21% and the MIC (Aspergillus terreus) was 9.2 µM (≈ 3.89 µg/mL). For the same compound, the MIC (Candida parapsilosis [15]) was 0.14 µM (≈ 0.0592 µg/mL), the hemolysis at 1 h, 3.9 ug/ml [16] was 8% and the MIC (Nakaseomyces glabratus [17]) was 4.6 µM (≈ 1.94 µg/mL). The hemolysis at 1 h, 1.95 ug/ml [18] was 2%, the Activity (Candida albicans [19]) was 36.6% and the hemolysis at 1 h, 0.48 ug/ml [20] was 2%. It also gave an MIC (Candida parapsilosis [21]) of 1.1 µM (≈ 0.465 µg/mL), an Activity (Candida albicans [22]) of 0.57% and an MIC (Aspergillus flavus) of 18.5 µM (≈ 7.82 µg/mL). For the same compound, the Activity (Candida albicans [23]) was 4.69%, the Activity (Candida albicans [24]) was 10% and the MIC (Cryptococcus neoformans [25]) was 0.57 µM (≈ 0.241 µg/mL). For the same compound, the MIC (Nakaseomyces glabratus [26]) was 2.3 µM (≈ 0.972 µg/mL), the Ratio (Aspergillus nidulans [27]) was 4 and the hemolysis at 1 h, 0.975 ug/ml [28] was 2%. For the same compound, the hemolysis at 1 h, 15.6 ug/ml [28] was 86%, the MIC (Candida albicans [29]) was 18.5 µM (≈ 7.82 µg/mL) and the MIC (Candida parapsilosis [30]) was 0.28 µM (≈ 0.118 µg/mL). It also gave an MIC (Candida parapsilosis [31]) of 0.57 µM (≈ 0.241 µg/mL), an MIC (Candida albicans [32]) of 4.6 µM (≈ 1.94 µg/mL) and an MIC (Cryptococcus neoformans [33]) of 1.1 µM (≈ 0.465 µg/mL). The MIC (Cryptococcus neoformans [34]) was 0.57 µM (≈ 0.241 µg/mL).
